Results on two molecules are retold here after publication PMC12440824, “Chimeric deubiquitinase engineering reveals structural basis for specific inhibition of the mitophagy regulator USP30” (Nature Structural & Molecular Biology, 2025).

Several values for one entry are separate records, joined by “and”; a condition that tells them apart may be missing. Equal values may be shown once. Read-outs that look alike come from different tables or passages of the source.

In experiment [1] the target is T1, USP30^c1 (Homo sapiens, UniProt Q70CQ3, DEL179-208/DEL211-214/DEL358-428/F348D/I353E/M350S/N216S/S215G).
T1 sequence (Q70CQ3 with tags, fused parts or gaps DEL179-208/DEL211-214/S215G/N216S/F348D/M350S/I353E/DEL358-428): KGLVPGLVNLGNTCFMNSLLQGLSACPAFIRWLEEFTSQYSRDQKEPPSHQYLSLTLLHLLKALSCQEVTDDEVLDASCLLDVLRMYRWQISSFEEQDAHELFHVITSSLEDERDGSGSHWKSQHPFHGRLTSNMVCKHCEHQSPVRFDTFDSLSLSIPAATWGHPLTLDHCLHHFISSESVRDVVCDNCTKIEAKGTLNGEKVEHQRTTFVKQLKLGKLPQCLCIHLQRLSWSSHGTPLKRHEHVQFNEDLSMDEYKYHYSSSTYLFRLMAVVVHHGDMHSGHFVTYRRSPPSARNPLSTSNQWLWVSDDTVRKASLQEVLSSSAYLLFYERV
The experiment can be described thus: Ub–RhoG cleavage enzyme inhibition assay, USP30 construct 1. It counts as biochemical. The conditions noted are these: for IC50: Ub–RhoG cleavage, 1.5 h pre-incubation, mean ± s.e.m. from curve fitting; for USP30c1 activity: mean n=3. How it is done: Enzyme kinetics were performed in black, low-volume, non-binding-surface 384-well plates. […] Next, 10 µl of 2× enzyme solution was added in triplicate to the plate. The reaction was started by adding 10 µl of 2× substrate solution. […] Inhibitor solution (4×) was added to 4× enzyme solution to create a 2× enzyme–inhibitor mixture. Next, 10 µl of this 2× enzyme–inhibitor mixture was then added to the plate in triplicate, and the plate was incubated at room temperature for 90 min. The reaction was started by adding 10 µl of 2× Ub–RhoG substrate. […] Data were analyzed with GraphPad Prism.

In another experiment the test system is USP30^ch3 L328F. The experiment can be described thus: Thermal shift assay, USP30 ch3 L328F. It counts as binding, human. The conditions noted are these: 20 μM inhibitor; for ΔTm, USP30^ch3 L328F: replicates or average. How it is done: (§1) The thermal stability of USP30 constructs and effects of either inhibitor or Ub-PA binding were determined by thermal shift assays. Inhibitor, Ub-PA and SYPRO orange dye (Sigma, 5,000× stock in DMSO) solutions were prepared in 1× PBS, 4 mM DTT. Inhibitor/Ub-PA was prediluted to 100 µM, and SYPRO orange dye was prediluted to 50× (from the commercial stock). Mixtures of protein, inhibitor/Ub-PA and SYPRO were prepared with inhibitor/Ub-PA at a final concentration of 20 μM, SYPRO at a final concentration of 4× and protein at a final concentration of 2 μM for c1, 4 μM for ch1, ch4 and c2 and 3 μM for ch2 and ch3. Samples were added in triplicate to a white 96-well PCR plate (Bio-Rad). Fluorescence intensity was monitored (excitation, 450–490 nm; emission, 560–580 nm) at a gradient of 20–90 °C (increment of 0.3 °C, hold for 5 s before read) on a real-time PCR system (Bio-Rad).

Experiment [2] concerns HeLa cells expressing YFP–parkin; ubiquitination of USP30 substrates (TOM20, TOM40, MFN2). The experiment can be described thus: Mitochondrial ubiquitination analysis (OtUBD enrichment, western blot). The following applies: 2 µM compound 19 h, then 10 µM CCCP 1 h. It counts as cell-based, human. As for the experimental part:
Using a Trans-Blot Turbo system (Bio-Rad, 1.0 A, 25 V, 30 min), proteins were blotted onto a nitrocellulose membrane. Membranes were saturated by incubating in 5% (wt/vol) non-fat milk in PBS-T. Primary antibodies (anti-Flag, 1:1,000, Sigma, F3165; anti-USP30, 1:500, Sigma, HPA016952; anti-vinculin, 1:10,000, Sigma, V9131; anti-GAPDH, 1:10,000, Thermo Fisher, AM4300; anti-TOM40, 1:2,000, Proteintech, 18409-1-AP; anti-TOM20, 1:5,000, Proteintech, 11802-1-AP; anti-MFN2, 1:5,000, Proteintech, 12186-1-AP) were allowed to bind overnight. Appropriate horseradish peroxidase-coupled secondary antibodies (anti-mouse, 1:5,000, Sigma, NXA931; anti-rabbit, 1:5,000, Sigma, GENA934) were applied, and chemiluminescence was generated using Clarity Western ECL Substrate (Bio-Rad). For detection of endogenous USP30 levels, the Clarity Western ECL Substrate was supplemented with 10% Clarity Max Western ECL Substrate (Bio-Rad). Images were recorded on a ChemiDoc MP Imaging System (Bio-Rad).
HeLa cells constitutively expressing YFP–parkin were treated with 2 µM of the respective compounds or an equivalent volume of DMSO on the day after seeding. Nineteen hours after compound treatment, 10 µM carbonyl cyanide m-chlorophenyl hydrazone (CCCP, Acros Organics) or DMSO of the equivalent volume was added for 1 h before cells were washed with ice-cold PBS. Cells were then lysed in urea lysis buffer (4 M urea, 50 mM Tris-HCl, pH 8, 150 mM NaCl, 1% (vol/vol) IGEPAL, 2 mM EDTA, 5% (vol/vol) glycerol, 1× EDTA-free protease inhibitor cocktail, 1 mM PMSF, 10 µM PR619, 20 mM N-ethylmaleimide, 4 mM 1,10-phenanthroline) and collected by scraping. Cells were homogenized by sonication for 10 s (2 s on and 2 s off) at 10% amplitude and centrifuged for 10 min at 14,000g and 4 °C.
Biotinylated OtUBD (2 nmol, prepared as described elsewhere[53]) was immobilized on 35 µl of a high-capacity NeutrAvidin agarose bead slurry (Pierce, Thermo Fisher Scientific) per condition for 1 h at 4 °C with rotation. Excess reagent was washed away with ice-cold PBS. The beads were then equilibrated in urea lysis buffer. For each condition, an equal amount of 3 mg protein (as determined by the Bradford assay, in 1 ml of lysis buffer, typically obtained from one 10-cm dish) was added to the beads. These were then incubated for 2 h at 4 °C with rotation and pelleted by centrifugation at 500g for 1 min, and the supernatant was removed. Beads were then washed once with lysis buffer, once with high-salt buffer (50 mM Tris-HCl, pH 8, 1 M NaCl) and twice with PBS. Elution was carried out using 2× LDS sample buffer with 25 mM DTT and boiling for 5 min at 95 °C. After pelleting the beads at 500g for 1 min, the supernatant was transferred and analyzed by SDS–PAGE and western blotting as described above.
In general terms: In western blotting, separated proteins are transferred to a membrane and probed.

Another experiment has as its target USP30^ch3 F453Y (Homo sapiens, UniProt Q70CQ3, F453Y, form not given). The experiment can be described thus: Thermal shift assay, USP30 ch3 F453Y. It counts as binding. The following applies: 20 μM inhibitor. As for the experimental part: as §1
Experiment [3] deals with T1, USP30^c1. The experiment can be described thus: Thermal shift assay, USP30 c1. The format is binding. The conditions noted are these: for Tm in presence of compound, USP30^c1: 20 μM inhibitor. How it is done:
as §1

Where [4] appears, read: pH 8, read-out: USP30c1 activity.

Chain of USP30^ch3 F453Y (Q70CQ3 64-502 F453Y, form open): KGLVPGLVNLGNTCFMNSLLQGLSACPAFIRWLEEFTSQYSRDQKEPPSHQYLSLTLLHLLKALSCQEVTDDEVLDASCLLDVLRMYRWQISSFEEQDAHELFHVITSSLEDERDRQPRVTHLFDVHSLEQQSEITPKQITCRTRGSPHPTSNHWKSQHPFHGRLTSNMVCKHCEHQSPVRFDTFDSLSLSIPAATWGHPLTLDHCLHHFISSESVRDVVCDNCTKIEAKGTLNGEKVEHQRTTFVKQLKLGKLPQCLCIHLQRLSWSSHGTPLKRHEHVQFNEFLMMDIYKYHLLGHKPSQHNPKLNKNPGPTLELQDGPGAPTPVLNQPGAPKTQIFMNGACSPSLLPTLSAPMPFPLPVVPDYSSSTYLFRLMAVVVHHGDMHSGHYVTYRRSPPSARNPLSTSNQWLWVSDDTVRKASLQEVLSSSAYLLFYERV
Chain of USP30^ch3 F453Y (P54578 248-318 partner, form open): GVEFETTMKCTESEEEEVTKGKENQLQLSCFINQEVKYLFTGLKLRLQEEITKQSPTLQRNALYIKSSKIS
Chain of USP30^ch3 F453Y (Q9P2H5 821-846 partner, form open): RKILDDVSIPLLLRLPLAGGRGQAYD

What is called IC50 is the concentration that inhibits the measured activity by half. A lower IC50 goes with greater potency in that assay. For orientation: ΔTm means the shift of the melting midpoint relative to a reference. As for `CC(C)(CO)NS(=O)(=O)c1ccc(NC(=O)[C@H](Cc2ccccc2)NC(=O)c2ccc(F)cc2)cc1` [NK036], at USP30^c1 [1], the IC50 is 7.4 nM and 7.38 nM. Further, on USP30^c1 [1] (setting [4]), the activity at 1.562 pM was found to be 100%, the activity at 6.25 pM is 101%, the activity at 25 pM was 98.2% and the activity at 0.0001 µM was 95.3%. Moreover, at USP30^c1 [1] (setting [4]), the activity at 0.00039 µM worked out at 89%, the activity at 0.00156 µM came out at 79.6%, the activity at 0.00625 µM was determined as 53.6% and the activity at 0.025 µM was determined as 27%. Also, at USP30^c1 [1] (setting [4]), the activity at 0.1 µM stood at 10.3%, the activity at 0.4 µM stood at 3.49% and the activity at 1.6 µM was determined as 1.25%. In the experiment on USP30^ch3 L328F, the “Tm in presence of compound, USP30^ch3 L328F” value is 58.2 °C and the “ΔTm, USP30^ch3 L328F” value is 1.2 °C. In experiment [2], the “polyubiquitination of TOM20 and TOM40” value is listed as “elevated”; the “polyubiquitination of mitofusin 2 (MFN2)” value is “not affecting”. In addition, on USP30^ch3 F453Y, the “Tm in presence of compound, USP30^ch3 F453Y” value was 58.2 °C. Moreover, the “Tm in presence of compound, USP30^c1” value on USP30^c1 [3] was 58.3 °C. Further, the ΔTm at 20 µM at USP30^c1 [3] (read-out: ΔTm, USP30^c1) came out at 7.2 °C. Further, the thermal shift (ΔTm) at 20 µM at USP30^c1 [3] (read-out: ΔTm, column headed USP30c1 in sheet Fig. 4f) worked out at 6.1 °C.

As to `CC(C)(C)NS(=O)(=O)c1ccc(NC(=O)[C@H](Cc2ccccc2)NC(=O)c2ccc(F)cc2)cc1` [compound 39], the IC50 on USP30^c1 [1] was 0.8 nM and 0.834 nM. For the same molecule, the USP30c1 activity at USP30^c1 [1] (inhibitor 0.0015625 nM) is 0.9588; at USP30^c1 [1] (inhibitor 0.00625 nM), 0.9404; at USP30^c1 [1] (inhibitor 0.025 nM), 0.8662; on USP30^c1 [1] (inhibitor 0.1 nM), 0.7469; on USP30^c1 [1] (inhibitor 0.39 nM), 0.5918; at USP30^c1 [1] (inhibitor 1.56 nM), 0.4353. The USP30c1 activity at USP30^c1 [1] (inhibitor 6.25 nM) was determined as 0.2635; at USP30^c1 [1] (inhibitor 25 nM) it was 0.1267; at USP30^c1 [1] (inhibitor 100 nM), 0.06264; on USP30^c1 [1] (inhibitor 400 nM), 0.02701; at USP30^c1 [1] (inhibitor 1600 nM) it was 0.01055. Also, in the experiment on USP30^ch3 L328F, the “Tm in presence of compound, USP30^ch3 L328F” value stood at 58.5 °C. In the experiment with USP30^ch3 L328F, the “ΔTm, USP30^ch3 L328F” value is 1.5 °C. Further, in experiment [2], the “polyubiquitination of TOM20 and TOM40” value was “elevated”. The “polyubiquitination of mitofusin 2 (MFN2)” value in experiment [2] is reported as “not affecting”. For the same molecule, the “Tm in presence of compound, USP30^ch3 F453Y” value at USP30^ch3 F453Y was 58.5 °C. Besides, on USP30^c1 [3], the “Tm in presence of compound, USP30^c1” value was found to be 58.9 °C. Also, the ΔTm at 20 µM at USP30^c1 [3] (read-out: ΔTm, USP30^c1) is 7.8 °C.
